Data set [1] has as its system Streptococcus pyogenes 65-A. Nature of the data set: In vivo efficacy against systemic infections in mice (intraperitoneal infection). Conditions: 168 h, po, twice, about 5 minutes and 6 hours after intraperitoneal infection, observed 7 days. On the set-up: species or system male mice (ddY). As to the method: (§1) Each of the solutions was orally administered to mice infected with each of test organisms under the conditions described below, and the medium effective doses (ED50) obtained are shown in Table II. Male mice (ddY) weighing about 20 g (2) Streptococcus pyogenes 65-A: Intraperitoneal infection with about 3×10^7 cells per mouse suspended in barin heart infusion broth. Twice, about 5 minutes and 6 hours after infection. |Streptococcus pyogenes 65-A |Escherichia coli P-5101 for 7 days | The numerals in the table show ED50 (mg/kg). ED50 values were | calculated in accordance with the BehrensKaerber method (Arch. Exp. Path. | Pharm., 162, 480 (1931)). | po: oral administration.

Data set [2] relates to Gram-positive and Gram-negative bacteria including Pseudomonas aeruginosa. The experiment in a line: In vivo efficacy against systemic infections, overall. Conditions: for therapeutic effect on systemic infections (in words): Gram-positive and Gram-negative bacteria; for therapeutic effect compared with Compound C (in words): systemic infections with Gram-negative bacteria including Pseudomonas aeruginosa. Set-up: species or system male mice (ddY). On the procedure: Compounds 1, 2 and C were each dissolved in deionized water or suspended in a 0.2% aqueous solution of CMC. Each of the solutions was orally administered to mice infected with each of test organisms under the conditions described below, and the medium effective doses (ED50) obtained are shown in Table II.
Male mice (ddY) weighing about 20 g
Twice, about 5 minutes and 6 hours after infection.

Data set [3] relates to Staphylococcus aureus No. 50774. Nature of the data set: In vivo efficacy against systemic infections in mice (intravenous infection). Set-up: species or system male mice (ddY). Conditions: NO.50774, 336 h, po, twice, about 5 minutes and 6 hours after intravenous infection, observed 14 days. On the procedure:
as §1, with “(1) Staphylococcus aureus No. 50774: Intravenous” for “(2) Streptococcus pyogenes 65-A: Intraperitoneal”, “5×10^8” for “3×10^7”, “saline.” for “barin heart infusion broth.”, “|Staphylococcus aureus No. 50774 |” for “|Streptococcus pyogenes 65-A |Escherichia coli P-5101”, “14” for “7”

Data set [4] relates to Gram-positive and Gram-negative bacteria including Pseudomonas aeruginosa. Nature of the data set: In vitro antibacterial activity, overall. It counts as cell-based. Conditions: for in vitro antibacterial activity compared with known compounds (in words): b258: Gram-negative bacteria, versus Compounds A, B, D and E, b33: versus compounds A and B; for antibacterial activity (in words): in vitro, Gram-positive and Gram-negative bacteria. On the procedure:
(§2) The minimum inhibitory concentrations (MIC, μg/ml) of the following compounds in vitro were measured by the agar dilution method of [Chemotherapy, Vol. 22, No. 16, page 1126 (1974)].

The next data set has as its system Escherichia coli P-5101. Nature of the data set: In vivo efficacy against systemic infections in mice (intraperitoneal infection). Set-up: species or system male mice (ddY). The settings on record: P5101, 168 h, po, twice, about 5 minutes and 6 hours after intraperitoneal infection, observed 7 days. As to the method:
as §1, with “(3) Escherichia coli P-5101:” for “(2) Streptococcus pyogenes 65-A:”, “9×10^6” for “3×10^7”, “trypto-soy broth with 4% mucin.” for “barin heart infusion broth.”, “infection.” for “infection. |Streptococcus pyogenes 65-A”

For data set [5], the system named is Streptococcus faecalis P-2473. Nature of the data set: In vitro antibacterial activity (MIC, agar dilution method). It counts as cell-based. Conditions: Enterococcus faecalis, P2473; Streptococcus faecalis P-2473; agar dilution; read-out: minimum inhibitory concentration (MIC). As to the method:
as §2

The subject of the next data set is Proteus morganii Kono. The description is as above. The settings on record: Morganella morganii; Proteus morganii Kono; agar dilution; read-out: minimum inhibitory concentration (MIC). It counts as cell-based. As to the method:
as §2
A general note: In agar dilution the substance is mixed into plates at graded concentrations.

Data set [6] has as its system Staphylococcus aureus No. 50774. The data set is described as above. In kind it is cell-based. The settings on record: Staphylococcus aureus No. 50774; agar dilution; read-out: minimum inhibitory concentration (MIC). As to the method: as §2
Data set [7] deals with Salmonella enteritidis No. 1891. Described as above. It counts as cell-based. Conditions: Salmonella enterica; Salmonella enteritidis No. 1891; agar dilution; read-out: minimum inhibitory concentration (MIC). On the procedure: as §2
Data set [8] concerns Klebsiella pneumoniae No. 13. The description is as above. In kind it is cell-based. The settings on record: Klebsiella pneumoniae No. 13; agar dilution; read-out: minimum inhibitory concentration (MIC). As to the method: as §2
Data set [9] deals with Enterobacter cloacae P-2540. The description is as above. The settings on record: P2540; Enterobacter cloacae P-2540; agar dilution; read-out: minimum inhibitory concentration (MIC). In kind it is cell-based. As to the method:
as §2

For data set [10], the system named is Corynebacterium pyogenes C-21. Described as above. The settings on record: C21; Corynebacterium pyogenes C-21; agar dilution; read-out: minimum inhibitory concentration (MIC). It counts as cell-based. As to the method:
as §2

Data set [11] relates to Salmonella typhimurium S-9. Described as above. Conditions: Salmonella enterica; Salmonella typhimurium S-9; agar dilution; read-out: minimum inhibitory concentration (MIC). In kind it is cell-based. On the procedure:
as §2

Another data set concerns Shigella flexneri 2a. The description is as above. It counts as cell-based. The settings on record: read-out: minimum inhibitory concentration (MIC). On the procedure: as §2
For data set [12], the system named is Staphylococcus epidermidis No. 8. The description is as above. It counts as cell-based. The settings on record: Staphylococcus epidermidis No. 8; agar dilution; read-out: minimum inhibitory concentration (MIC). As to the method:
as §2

The next data set can be described thus: in vivo. The settings on record: for LD50 at 168 h: mouse, in vivo, po; for acute oral toxicity (in words): hydrochloride. On the procedure: A solution containing each of Compounds 1 and 2 of this invention in various concentrations was orally given to male mice (ddY) at a dose of 0.1 ml per 10 g of body weight. The number of dead mice was counted after 7 days, and the value of median lethal dose (LD50, mg/kg) was calculated in accordance with the Behrens-Kaerber method.

For data set [13], the system named is Pseudomonas aeruginosa No. 12. The experiment in a line: In vivo efficacy against systemic infections in mice (intraperitoneal infection). On the set-up: species or system male mice (ddY). The settings on record: NO.12, 168 h, po, twice, about 5 minutes and 6 hours after intraperitoneal infection, observed 7 days. On the procedure:
as §1, with “(4) Pseudomonas aeruginosa No. 12:” for “(2) Streptococcus pyogenes 65-A:”, “5×10^3” for “3×10^7”, “trypto-soy broth with 4% mucin.” for “barin heart infusion broth.”, “infection.” for “infection. |Streptococcus pyogenes 65-A”, “days |Pseudomonas aeruginosa No. 12” for “days”

“Also recorded” adds a separate entry of the source.

With `CCn1cc(C(=O)O)c(=O)c2cc(F)c(N3CCC(NC)C3)nc21.Cl` (stereo not shown) [Compound 2, 1-Ethyl-6-fluoro-1,4-dihydro-7-(3-methylamino-1-pyrrolidinyl)-4-oxo-1,8-naphthyridine-3-carboxylic acid hydrochloride], the ED50 is 42 mg/kg in [1], 4.8 mg/kg in data set [3], 1.4 mg/kg in the data set with Escherichia coli P-5101 and 6.5 mg/kg in data set [13]. Also, the “therapeutic effect on systemic infections (in words)” value in data set [2] was “potent therapeutic effects”. Also, the “therapeutic effect compared with Compound C (in words)” value in data set [2] was “better therapeutic effects”. The “in vitro antibacterial activity compared with known compounds (in words)” value in [4] is given as “far better in vitro antibacterial activity”. For the same compound, the “antibacterial activity (in words)” value in [4] was “very high antibacterial activities”. Moreover, the MIC in [5] is 6.25 µg/mL; in the data set with Proteus morganii Kono it was 0.39 µg/mL; in data set [6], 0.78 µg/mL; in [7], 0.1 µg/mL; in data set [8], 0.39 µg/mL; in data set [9], 0.39 µg/mL. Also, the MIC in data set [10] amounted to 1.56 µg/mL; in data set [11], 0.2 µg/mL; in the data set with Shigella flexneri 2a, 0.2 µg/mL; in [12] it was 0.39 µg/mL. Besides, the LD50 at 168 h in “in vivo” is above 2000 mg/kg. Moreover, the “acute oral toxicity (in words)” value in “in vivo” is listed as “very weak; also recorded: low oral toxicity”.
`CCn1cc(C(=O)O)c(=O)c2cc(F)c(N3CCC(N)C3)nc21.Cl` (stereo not shown) [Compound 1, 7-(3-Amino-1-pyrrolidinyl)-1-ethyl-6-fluoro-1,4-dihydro-4-oxo-1,8-naphthyridine-3-carboxylic acid hydrochloride]: the ED50 worked out at 21 mg/kg in data set [1], 3 mg/kg in data set [3], 1.7 mg/kg with Escherichia coli P-5101 and 3.7 mg/kg in data set [13]. For the same compound, the “therapeutic effect on systemic infections (in words)” value in data set [2] is reported as “potent therapeutic effects”. In data set [2], the “therapeutic effect compared with Compound C (in words)” value was “better therapeutic effects”. Besides, the “in vitro antibacterial activity compared with known compounds (in words)” value in [4] is listed as “far better in vitro antibacterial activity”. Also, in [4], the “antibacterial activity (in words)” value is on record as “very high antibacterial activities”. Also, the MIC was 3.13 µg/mL in data set [5]; 0.2 µg/mL in the data set with Proteus morganii Kono; 0.2 µg/mL in data set [6]; 0.1 µg/mL in [7]; 0.2 µg/mL in [8]; below 0.05 µg/mL in [9]. For the same compound, the MIC turned out to be 0.39 µg/mL in data set [10], 0.1 µg/mL in data set [11], 0.1 µg/mL in the data set on Shigella flexneri 2a and 0.2 µg/mL in [12]. In the data set “in vivo”, the LD50 at 168 h is above 2000 mg/kg. Also, the “acute oral toxicity (in words)” value in the data set “in vivo” is “very weak; also recorded: low oral toxicity”.

What is called ED50 is the dose that gives a 50% effect, or the effect in half of the subjects. One may read the LD50 as the dose expected to kill half of the subjects tested. Low readings indicate greater toxicity, high ones lower toxicity.
